Measured values taken from PubChem BioAssay AID248 (DTP/NCI, 2004).
Toxic doses and inconclusive results are not listed. Rule as the data show it: active = T/C of 150% or more; inactive = T/C below 125%.

Test system: L1210 leukemia ip in BDF1 mice, survival T/C
Assay: NCI In Vivo Anticancer Drug Screen. Data for tumor model L1210 Leukemia (intraperitoneal) in B6D2F1 (BDF1) mice
Conditions: endpoint: mean survival time, higher = longer survival
How it was run: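 Tumor was transplanted into mice, which were then dosed with test compound or vehicle alone. Survival was recorded for each group, and the treated figure was expressed relative to the control figure.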

[1] = dose: 100.0 mg/kg/injection, schedule: Q04DX003 (ip), vehicle: saline

Measured: T/C

CCCc1nc(N)[nH]c(=O)c1CCCCc1ccccc1
inactive: [1] 96 % of control | dose: 200.0 mg/kg/injection, schedule: Q04DX003 (ip), vehicle: saline 110 % of control | dose: 400.0 mg/kg/injection, schedule: Q04DX003 (ip), vehicle: saline 100 % of control

Cc1cc([N+](=O)[O-])sc1[N+](=O)[O-]
inactive: dose: 25.0 mg/kg/injection, schedule: Q01DX009 (ip), vehicle: saline 108 % of control | dose: 50.0 mg/kg/injection, schedule: Q01DX009 (ip), vehicle: saline 97 % of control | dose: 100.0 mg/kg/injection, schedule: Q01DX009 (ip), vehicle: saline 110 % of control | [1] 101 % of control

NC(=O)c1ccccc1Cl
inactive: dose: 100.0 mg/kg/injection, schedule: Q01DX001 (ip), vehicle: saline with Tween-80 104 % of control | dose: 100.0 mg/kg/injection, schedule: Q01DX009 (ip), vehicle: saline sonified 105 % of control | dose: 200.0 mg/kg/injection, schedule: Q01DX001 (ip), vehicle: saline with Tween-80 102 % of control | dose: 200.0 mg/kg/injection, schedule: Q01DX009 (ip), vehicle: saline sonified 89 % of control | dose: 400.0 mg/kg/injection, schedule: Q01DX001 (ip), vehicle: saline with Tween-80 101 % of control | dose: 400.0 mg/kg/injection, schedule: Q01DX009 (ip), vehicle: saline sonified 100 % of control
